Reference: patent US11396513B2, “Compositions for activating pyruvate kinase” (FORMA Therapeutics, Inc., priority 2017, dated 2022)

Key:
PKR (wild type) = PKR (wild type) (Homo sapiens, UniProt P30613); experiment: Luminescence Assay (Kinase Glo Plus), PKR wild type; format: biochemical
Method: (§1) The ability of compound 1 to activate PKR was determined using the following Luminescence Assay. The effect of phosphorylation of adenosine-5′-diphosphate (ADP) by PKR (wild type) is determined by the Kinase Glo Plus Assay (Promega) in the presence or absence of FBP [D-Fructose-1,6-diphosphate; BOC Sciences, CAS: 81028-91-3] as follows. Unless otherwise indicated, all reagents are purchased from Sigma-Aldrich. All reagents are prepared in buffer containing 50 mM Tris-HC1, 100 mM KC1, 5 mM MgC12, and 0.01% Triton X100, 0.03% BSA, and 1 mM DTT. Enzyme and PEP [Phospho(enol) pyruvic acid] are added at 2× to all wells of an assay-ready plate containing serial dilutions of test compounds or DMSO vehicle. Final enzyme concentrations for PKR(wt), PKR(R510Q), and PKR(G332S) are 0.8 nM, 0.8 nM, and 10 nM respectively. Final PEP concentration is 100 μM. The Enzyme/PEP mixture is incubated with compounds for 30 minutes at RT before the assay is initiated with the addition of 2×ADP [Adenosine-5′-diphosphate] and KinaseGloPlus. Final concentration of ADP is 100 μM. […] For assays containing FBP, that reagent is added at 30 μM upon reaction initiation. Reactions are allowed to progress for 45 minutes at RT until luminescence is recorded by the BMG PHERAstar FS Multilabel Reader. The compound is tested in triplicate at concentrations ranging from 42.5 μM to 2.2 nM in 0.83% DMSO. […]

PKR(G332S) = PKR(G332S) (Homo sapiens, UniProt P30613, G332S); experiment: Luminescence Assay (Kinase Glo Plus), G332S PKR mutant; format: biochemical; details: G332S PKR mutant 10 nM; PEP 100 μM; ADP 100 μM; four parameter fit; triplicate
Method: as §1

PKR (wild type), sequence (P30613 whole entry): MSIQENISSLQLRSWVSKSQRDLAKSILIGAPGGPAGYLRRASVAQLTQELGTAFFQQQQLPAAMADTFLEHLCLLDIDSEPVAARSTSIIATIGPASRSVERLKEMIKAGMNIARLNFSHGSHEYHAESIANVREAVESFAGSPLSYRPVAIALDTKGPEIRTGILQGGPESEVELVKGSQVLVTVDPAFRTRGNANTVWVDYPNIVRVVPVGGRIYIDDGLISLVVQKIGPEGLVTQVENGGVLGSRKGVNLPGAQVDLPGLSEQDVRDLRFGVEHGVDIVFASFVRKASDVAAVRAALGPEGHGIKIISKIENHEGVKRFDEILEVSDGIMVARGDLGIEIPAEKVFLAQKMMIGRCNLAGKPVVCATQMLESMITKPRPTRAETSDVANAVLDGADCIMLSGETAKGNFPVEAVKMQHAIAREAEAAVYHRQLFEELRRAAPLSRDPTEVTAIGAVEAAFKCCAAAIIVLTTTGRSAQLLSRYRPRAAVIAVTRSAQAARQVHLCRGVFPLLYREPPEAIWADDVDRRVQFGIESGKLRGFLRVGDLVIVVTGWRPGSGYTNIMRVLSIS
PKR(G332S), sequence (P30613 whole entry G332S): as the sequence (P30613 whole entry) above, with G332S counted along it

Q: Which results are given for `CC(C)(O)C(=O)N1CC2=C(C1)CN(S(=O)(=O)c1ccc3c(c1)NCCO3)C2` [compound 1, 1-(5-((3,4-Dihydro-2H-benzo[b][1,4]oxazin-6-yl)sulfonyl)-3,4,5,6-tetrahydropyrrolo[3,4-c]pyrrol-2(1H)-yl)-2-hydroxy-2-methylpropan-1-one]?
A: AC50 (PKR (wild type); Luminescence Assay, PKR form not specified, definition of PKR Activator Compound): < 1000 nM; AC50 (PKR (wild type); PKR wild type enzyme 0.8 nM, PEP 100 μM, ADP 100 μM, four parameter fit, triplicate): 100 to 1000 nM; AC50 (PKR(G332S)): 100 to 1000 nM
